Legend:
[1] = Inhibitory activity of compound against very late antigen 4 using VCAM-Ig ligand; set-up: species or system Rattus norvegicus
[2] = Bioavailability in rat (dose 1 mg/kg i.v. and 2 mg/kg p.o.); assay type: ADME, organism-based; conditions: in vivo, po
[3] = Plasma clearance of compound in rats was evaluated; assay type: ADME, organism-based; conditions: rat, read-out: Clp
[4] = Dissociation constant was evaluated; assay type: physicochemical
[5] = Partition coefficient (logD); assay type: physicochemical; conditions: octanol/water
[6] = biological target: T1, Integrin alpha-4/beta-7 (Homo sapiens, UniProt P13612+P26010); assay: Inhibitory activity of compound against alpha4-beta7 integrin using MAdCAM-Ig ligand; assay type: protein-complex assay
T1 sequence (P13612 whole entry): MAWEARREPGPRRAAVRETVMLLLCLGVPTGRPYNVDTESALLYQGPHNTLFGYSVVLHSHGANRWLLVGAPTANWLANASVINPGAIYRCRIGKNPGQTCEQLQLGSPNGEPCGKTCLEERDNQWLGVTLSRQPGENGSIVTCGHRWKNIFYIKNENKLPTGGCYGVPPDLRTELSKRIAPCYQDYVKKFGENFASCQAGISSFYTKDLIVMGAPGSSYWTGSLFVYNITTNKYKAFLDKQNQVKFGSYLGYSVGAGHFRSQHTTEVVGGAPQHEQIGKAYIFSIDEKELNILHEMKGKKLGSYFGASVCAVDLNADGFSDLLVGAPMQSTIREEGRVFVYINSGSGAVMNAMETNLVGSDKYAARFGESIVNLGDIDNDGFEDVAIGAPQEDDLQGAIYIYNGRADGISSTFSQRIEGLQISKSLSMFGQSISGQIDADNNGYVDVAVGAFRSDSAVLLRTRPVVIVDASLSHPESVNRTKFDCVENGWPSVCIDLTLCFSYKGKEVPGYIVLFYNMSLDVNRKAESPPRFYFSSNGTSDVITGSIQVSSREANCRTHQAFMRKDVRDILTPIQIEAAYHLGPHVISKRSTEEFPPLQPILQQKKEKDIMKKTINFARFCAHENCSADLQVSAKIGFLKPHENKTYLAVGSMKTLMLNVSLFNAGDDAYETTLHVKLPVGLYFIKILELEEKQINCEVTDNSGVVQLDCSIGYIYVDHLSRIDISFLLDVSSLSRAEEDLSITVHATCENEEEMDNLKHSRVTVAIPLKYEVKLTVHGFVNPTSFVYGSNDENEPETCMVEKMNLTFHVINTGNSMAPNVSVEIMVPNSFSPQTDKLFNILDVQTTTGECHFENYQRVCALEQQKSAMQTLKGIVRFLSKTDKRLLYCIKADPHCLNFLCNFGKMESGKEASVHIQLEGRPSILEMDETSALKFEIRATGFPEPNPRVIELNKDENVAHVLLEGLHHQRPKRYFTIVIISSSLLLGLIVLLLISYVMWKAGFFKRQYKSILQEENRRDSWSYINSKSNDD
T1 sequence (P26010 whole entry): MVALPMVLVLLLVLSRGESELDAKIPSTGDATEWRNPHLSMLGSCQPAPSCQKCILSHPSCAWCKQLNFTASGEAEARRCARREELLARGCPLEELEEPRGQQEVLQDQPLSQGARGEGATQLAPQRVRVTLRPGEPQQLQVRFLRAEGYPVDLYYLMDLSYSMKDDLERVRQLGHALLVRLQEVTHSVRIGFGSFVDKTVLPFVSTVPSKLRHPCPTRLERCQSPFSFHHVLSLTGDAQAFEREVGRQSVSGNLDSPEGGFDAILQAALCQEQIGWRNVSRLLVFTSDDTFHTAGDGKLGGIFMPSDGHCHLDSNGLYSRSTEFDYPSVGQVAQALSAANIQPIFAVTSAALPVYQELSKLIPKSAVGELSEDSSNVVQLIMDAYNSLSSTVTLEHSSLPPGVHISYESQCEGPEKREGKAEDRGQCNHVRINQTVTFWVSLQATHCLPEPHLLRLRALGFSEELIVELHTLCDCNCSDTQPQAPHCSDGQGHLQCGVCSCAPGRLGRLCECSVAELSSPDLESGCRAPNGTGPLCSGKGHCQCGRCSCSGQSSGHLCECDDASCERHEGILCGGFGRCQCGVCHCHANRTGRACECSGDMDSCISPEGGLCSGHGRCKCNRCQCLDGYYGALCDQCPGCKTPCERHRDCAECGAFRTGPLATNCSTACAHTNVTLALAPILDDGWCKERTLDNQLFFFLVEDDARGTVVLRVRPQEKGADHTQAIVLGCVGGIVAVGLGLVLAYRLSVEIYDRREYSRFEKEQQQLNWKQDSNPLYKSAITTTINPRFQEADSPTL

[7] = biological target: Integrin alpha-4/beta-1 (Homo sapiens) (UniProt P05556+P13612); assay: Inhibition of VCAM-Ig binding to very late activating antigen-4 (VLA-4) at 10 uM; assay type: protein-complex assay

Compound	IC50 [1] [nM]	bioavailability [2] [%]	clearance [3] [mL/min/kg]	pKa [4]	logD [5]	IC50 [6] [nM]	inhibition [7] [%]
COc1cccc(OC)c1-c1ccc(C[C@@H](C(=O)O)N(C)C(=O)[C@@H]2CCN2S(=O)(=O)c2cc(Cl)cc(Cl)c2)cc1	350						
COc1cccc(OC)c1-c1ccc(C[C@H](/N=C(\NC#N)[C@@H]2CCN2S(=O)(=O)c2ccccc2)C(=O)O)cc1	0.09	3	93	-2	2.5	4.1	
COc1cccc(OC)c1-c1ccc(C[C@@H]2N=C([C@@H]3CCN3S(=O)(=O)c3ccccc3)NNC2=O)cc1	58	3.3	86		3.2		
COc1cccc(OC)c1-c1ccc(C[C@H](/N=C(\N)[C@@H]2CCN2S(=O)(=O)c2ccccc2)C(=O)O)cc1	0.1	0.2	61			19	
COc1cccc(OC)c1-c1ccc(C[C@H](/N=C(\NCC(C)(C)C)[C@@H]2CCN2S(=O)(=O)c2ccccc2)C(=O)O)cc1	0.21	0	64		3.7	120	
CN/C(=N\[C@@H](Cc1ccc(-c2c(OC)cccc2OC)cc1)C(=O)O)[C@@H]1CCN1S(=O)(=O)c1ccccc1	0.12	0.7	81	10.5	2.4	40	
COc1cccc(OC)c1-c1ccc(C[C@@H]2/N=C(/[C@@H]3CCN3S(=O)(=O)c3ccccc3)NCc3nccn3C2=O)cc1		0.6	382			4090	85
COc1cccc(OC)c1-c1ccc(C[C@H](NC(=O)[C@@H]2CCN2S(=O)(=O)c2ccccc2)C(=O)O)cc1	0.1	1.4	107		2.6	78	
COc1cccc(OC)c1-c1ccc(C[C@H](/N=C(\N)[C@@H]2CCN2S(=O)(=O)c2cc(Cl)cc(Cl)c2)C(=O)O)cc1	0.05	0.3	90		4.1	16	
COc1cccc(OC)c1-c1ccc(C[C@H](/N=C(\NCC2CCOOCC2)[C@@H]2CCN2S(=O)(=O)c2ccccc2)C(=O)O)cc1	0.28	0.6	67		2.6	43	
CON/C(=N\[C@@H](Cc1ccc(-c2c(OC)cccc2OC)cc1)C(=O)O)[C@@H]1CCN1S(=O)(=O)c1ccccc1	0.17	9.3	79	< 4	2.8	35	
COc1cccc(OC)c1-c1ccc(C[C@H](NC(=O)[C@]2(C)CCN2S(=O)(=O)c2cc(Cl)cc(Cl)c2)C(=O)O)cc1	0.07		110				
COc1cccc(OC)c1-c1ccc(C[C@H](/N=C(\NCC(=O)O)[C@@H]2CCN2S(=O)(=O)c2ccccc2)C(=O)O)cc1	0.17				1.9	78	
COc1cccc(OC)c1-c1ccc(C[C@H](/N=C(\NCC(F)(F)F)[C@@H]2CCN2S(=O)(=O)c2ccccc2)C(=O)O)cc1	0.13	1.8	45		3.3	27	
CN/C(=N\[C@@H](Cc1ccc(-c2c(OC)cccc2OC)cc1)C(=O)O)[C@@H]1CCN1S(=O)(=O)c1cc(Cl)cc(Cl)c1	0.05	0.8	85	10.2	2.7	21	
COc1cccc(OC)c1-c1ccc(C[C@H](NC[C@@H]2CCCN2S(=O)(=O)c2cc(Cl)cc(Cl)c2)C(=O)O)cc1	140					8400	
COc1cccc(OC)c1-c1ccc(C[C@H](OC(=O)[C@@H]2CCN2S(=O)(=O)c2cc(Cl)cc(Cl)c2)C(=O)O)cc1	15					3000	
COc1cccc(OC)c1-c1ccc(C[C@H](/N=C(\NCc2ccccn2)[C@@H]2CCN2S(=O)(=O)c2ccccc2)C(=O)O)cc1	0.15				2.8	35	
COCCN/C(=N\[C@@H](Cc1ccc(-c2c(OC)cccc2OC)cc1)C(=O)O)[C@@H]1CCN1S(=O)(=O)c1ccccc1	0.28	0	81			65	
COc1cccc(OC)c1-c1ccc(C[C@H](/N=C(\NO)[C@@H]2CCN2S(=O)(=O)c2ccccc2)C(=O)O)cc1	0.14				2.3	98	
COc1cccc(OC)c1-c1ccc(C[C@H](NC(=O)[C@@H]2CCN2S(=O)(=O)c2cc(Cl)cc(Cl)c2)C(=O)O)cc1	0.08		102		4		
COc1cccc(OC)c1-c1ccc(C[C@H](/N=C(\NS(C)(=O)=O)[C@@H]2CCN2S(=O)(=O)c2ccccc2)C(=O)O)cc1	0.07	1.6	103	-2	2.4	2.2	

From ChEMBL document CHEMBL1148235, “Amidines as amide bond replacements in VLA-4 antagonists” (Bioorg Med Chem Lett, 2004)
